The text below walks through data of patent US11123292B2, “Use of biocompatible microdroplets for the treatment of atherosclerosis, heart disease and stroke” (priority 2014, dated 2021).

Data set [1] in a line: Water insoluble solvents tested for dissolving cholesterol / arterial plaque. The conditions noted are these: medium not stated. An excerpt:
(§1) To effectively dissolve arterial plaque in-vivo it is very important that the biocompatible solvent be sufficiently insoluble in blood to allow a small discrete microdroplet to travel through the blood stream, from the injection point, to the plaque which is being treated. If the biocompatible solvent dissolves within the blood, such as an alcohol, the solubility parameters of the resultant mixture will be very nearly identical to that of blood and will not dissolve cholesterol or arterial plaque. Conversely, if a discrete microdroplet of the biocompatible solvent makes contact with the plaque, then the cholesterol molecule in the plaque will be surrounded by multiple molecules of the biocompatible solvent, which have similar solubility parameters as the cholesterol, and the cholesterol will be drawn away from the plaque and into the droplet. […] An organic salt, Esters, an organo-metallic compound could also be used as the main component or an addition to the biocompatible microdroplet solvent means. Essentially any organic molecule which can be administered intravenously with acceptable side effects, is sufficiently insoluble in blood to travel as a discrete microdroplet without being dissolved prior to reaching arterial plaque and which is capable of dissolving cholesterol, cholesterol esters or other materials within the arterial plaque, could potentially be used.

Data set [2] in a line: Relative Energy Difference (RED) with cholesterol, calculated from HSP. The conditions noted are these: for Relative Energy Difference (RED) with cholesterol: RED=Ra/Ro, Ro of cholesterol 12.6; for Ra^2 versus cholesterol: Eq. 1. As to the method:
The extent to which two compounds will dissolve each other can be quantified using the equations developed by Hansen: (Ra)^2=4(δd2−δd1)^2+(δp2−δp1)^2+(δh2−δh1)^2 Eq. (1) RED=Ra/Ro Eq. (2)
Equation 1 calculates the relative magnitude difference of the three Hansen parameters of the two compounds to arrive at Ra. […] Equation 2 allows one to calculate the Relative Energy Difference (RED) of the solvent and the material we are trying to dissolve, by dividing Ra by Ro. Ra was calculated in Equation 1 and measures the magnitude of the difference of the HSP values of the two compounds. The units for the HSP parameters δd, δp, δh are MPa^1/2. […] The Relative Energy Difference (RED) is a dimensionless number which quantifies how well a solvent will dissolve a solute. For an RED>>1 the compounds will not dissolve. For an RED˜1, there will be some dissolution. For an RED<1 there will be a considerable amount of dissolution. Essentially, the smaller RED value, the more solute will dissolve into the solvent, with RED=1 being a threshold where a given solute is starting to be soluble in a given solvent.
Referring now to FIG. 6, this diagram provides a flow chart showing how the biocompatible microdroplet solvent emulsion can be formulated. […] For an example of compounds which might be included in 400, please refer to Tables 1, 2, 3 and 4. However, this list of tables is by no means exhaustive and other compounds could be added to this list. The number of compounds selected can comprise of 1, 2, 3 or as many as are deemed necessary, which is symbolized by the variable n. The HSP parameters of a homogenous mixture of compounds are the weighted average of the HSP parameters of the individual components. […] Ideally, it is possible to formulate a solution such that the resultant RED of the mixture is smaller than the RED of any of the individual components.
The δdm, δpm, δhm calculated using Eq. 9 are the Hansen solubility parameters of the homogenous mixture, where m denotes mixture, and fi depicts the fraction of each of the n components used to fabricate the biocompatible solvent. Equation 10 can be used to calculate the RED of the final mixture, where Ro is the interaction radius of the cholesterol, or other component of arterial plaque one desires to dissolve using the biocompatible microdroplets and […] represents the Hansen solubility constants of cholesterol (dispersion, polar and hydrogen bonding components) or the HSP parameter of the arterial plaque which is being targeted.

For data set [3] the following is noted: cited from earlier work; for mass fraction of cholesterol which will dissolve in a pure solution of the alcohol: 37° C.
For data set [4] the following is noted: cited from earlier work.
For data set [5] the following is noted: single compound; cited from earlier work.
For data set [6] the following is noted: cited from earlier work; for LD50 dose: route not stated.
The nature of data set [7]: Dissolving cholesterol by microdroplets in whole blood.
Source text: as §1
(§2) 1,8-cineole is classified as a cyclic ether and a monoterpenoid. […] This chemical gives certain fruits such as apples and strawberries their fruity taste, and is used as an additive in bubble gums for this purpose. […] It is used as a fragrance or flavouring agent. […] It is produced natuarally by the organism, and is found in abundance in shark liver oil.

For data set [8] the following is noted: cited from earlier work. The source holds these as a separate data set.
Data set [9] is described as follows: Dissolving cholesterol by microdroplets in a dilute solution in water.
Source text: as §2

“Also recorded” adds a separate entry of the source. Like-named read-outs stand apart in the source and are kept apart here.

As to `CC/C=C\C/C=C\C/C=C\CCCCCCCC(=O)O` [Alpha-linolenic acid], in data set [1], the “result of solvent testing (dissolving cholesterol)” value (from here on “result of solvent testing”) is “very promising results”.
Regarding `CCO` [Ethanol, reference compound], in [2], the “Relative Energy Difference (RED) with cholesterol” value (from here on “Relative Energy Difference (RED)”) is on record as 1.32. For the same compound, in data set [3], the “mass fraction of cholesterol which will dissolve in a pure solution of the alcohol” value is given as 3.3%.
With `O` [water, reference compound], the “Relative Energy Difference (RED)” value in data set [2] is given as 2.9. The “mass fraction of cholesterol which will dissolve in pure water” value in data set [3] (pure water) was 0.0000095%.
Take `CC(=O)c1ccccc1` [Acetophenone]: in data set [4] (in words), the “solubility in water / water based blood” value is on record as “somewhat soluble in water”. In addition, in data set [2], the “Relative Energy Difference (RED)” value is 0.66. Also, in data set [5], the “δd London dispersion HSP parameter” value is 19.6 MPa^1/2, the “δh hydrogen bonding HSP parameter” value is given as 3.7 MPa^1/2 and the “δp polarity HSP parameter” value is 8.6 MPa^1/2.
On to `O=C(OCc1ccccc1)c1ccccc1` [Benzyl benzoate], for which, in data set [2], the “Ra^2 versus cholesterol” value is on record as 24. Moreover, in data set [5], the “δd London dispersion HSP parameter” value is 20 MPa^1/2, the “δh hydrogen bonding HSP parameter” value is 5.2 MPa^1/2 and the “δp polarity HSP parameter” value is listed as 5.1 MPa^1/2. In addition, the LD50 dose in data set [6] is 1.68 g/kg.
For the compound `Cc1ccc(C(C)C)cc1O` [Carvacrol], the “solubility in water / water based blood” value in data set [4] was “insoluble in water”. For the same compound, in data set [2], the “Relative Energy Difference (RED)” value was 0.64. Further, in [5], the “δd London dispersion HSP parameter” value is on record as 16.5 MPa^1/2, the “δh hydrogen bonding HSP parameter” value is reported as 11.4 MPa^1/2 and the “δp polarity HSP parameter” value was 3.2 MPa^1/2. In [7], the “efficacy of microdroplets at dissolving cholesterol in whole blood” value (shortened to “efficacy of microdroplets”) is on record as “excellent results”.
As for `c1ccc(Oc2ccccc2)cc1` [Diphenyl ether], in data set [2], the “Ra^2 versus cholesterol” value is on record as 17 and the “Relative Energy Difference (RED)” value is given as 0.32. Moreover, in data set [5], the “δd London dispersion HSP parameter” value is reported as 19.5 MPa^1/2, the “δh hydrogen bonding HSP parameter” value was 5.8 MPa^1/2 and the “δp polarity HSP parameter” value was 3.4 MPa^1/2. Further, the “excreted in the urine” value in data set [8] (once absorbed) was 90%. Besides, in [7], the “efficacy of microdroplets” value was “excellent results”. Further, the LD50 dose in data set [6] is on record as 2.85 g/kg of body weight.
For the compound `O=C(O)c1ccccc1` [Benzoic acid], the “time to excretion in the urine” value in data set [8] (after ingestion) was at most 24 h.
For the compound `Brc1cccc2ccccc12` [1-Bromonaphthalene], the “result of solvent testing” value in data set [1] is reported as “very promising results”.
In the case of `CCCO` [Propanol, reference compound], in [2], the “Relative Energy Difference (RED)” value is 1.10. For the same compound, the “mass fraction of cholesterol which will dissolve in a pure solution of the alcohol” value in data set [3] was 11%.
For `CCCCC/C=C\C/C=C\CCCCCCCC(=O)O` [Linoleic acid], in [1], the “result of solvent testing” value is recorded as “very promising results”.
Consider `CC(C)CCC[C@@H](C)[C@H]1CC[C@H]2[C@@H]3CC=C4C[C@@H](O)CC[C@]4(C)[C@H]3CC[C@]12C` [cholesterol, Cholesterol], for which, in [5], the “δd London dispersion HSP parameter” value is given as 20.4 MPa^1/2, the “δh hydrogen bonding HSP parameter” value was 9.4 MPa^1/2 and the “δp polarity HSP parameter” value was 2.8 MPa^1/2. Further, in [3] (30° C.), the “solubility of cholesterol in pure water” value is reported as “approximately 95 micrograms per litre” and the “solubility of cholesterol in water” value is reported as 0.000095 grams/litre.
Take `CC12CCC(CC1)C(C)(C)O2` [1,8-cineole]: the “Relative Energy Difference (RED)” value in [2] is reported as 0.77. In data set [5], the “δd London dispersion HSP parameter” value is listed as 16.7 MPa^1/2, the “δh hydrogen bonding HSP parameter” value is reported as 3.4 MPa^1/2 and the “δp polarity HSP parameter” value was 4.6 MPa^1/2. Besides, in data set [7] (up to a 4× difference in blood volume), the “efficacy at dissolving cholesterol, two experiments compared” value is given as “identical to within measurement error”. In addition, the “efficacy of microdroplets” value in [7] was “extremely good efficacy”. For the same compound, the “efficacy of microdroplets” value in [7] (listed as 1,8 cineole) was “excellent results; also recorded: excellent efficacy”.
For `CCOC(=O)OCC` [Diethyl carbonate], in [5], the “δd London dispersion HSP parameter” value is recorded as 16.6 MPa^1/2, the “δh hydrogen bonding HSP parameter” value is reported as 6.1 MPa^1/2 and the “δp polarity HSP parameter” value is listed as 3.1 MPa^1/2. In data set [6] (oral), the median lethal dose (LD50) is listed as 8.5 g/kg.
On to `C=C(C)[C@H]1CC=C(C)CC1` [Limonene], for which, in [5], the “δd London dispersion HSP parameter” value is given as 17.2 MPa^1/2, the “δh hydrogen bonding HSP parameter” value is 4.3 MPa^1/2 and the “δp polarity HSP parameter” value is reported as 1.8 MPa^1/2. In [7], the “efficacy of microdroplets” value is “the cholesterol sample seemed to accumulate precipitate and swell”. In data set [9], the “dissolving cholesterol in a dilute solution in water” value is given as “dissolved cholesterol”.
On to `CC/C=C\C/C=C\C/C=C\C/C=C\C/C=C\CCCC(=O)O` [Elcosapentaenoic acid], for which, in data set [1], the “result of solvent testing” value is “very promising results”.

A word on the LD50: it is the dose expected to kill half of the subjects tested.
